Active and inactive are the calls of the source. No cut-off for these calls is given here.
Legend:
[1] = tested on: MCF7; assay: Induction of cell sensitization to cisplatin in cisplatin-resistant human MCF-7 cells assessed as reduction in colony formation at 5 uM measured after 8 to 10 days by clonogenic survival assay; format: functional, cell-based; settings: time 8-10 day
[2] = molecular target: T1, DNA repair protein RAD51 homolog 1 (Homo sapiens) (UniProt Q06609); assay: Stabilization of RAD51 foci in human MCF7 cells assessed as increase in RAD51 positive cells at 20 uM pretreated with cisplatin for 8 hrs followed by compound addition and measured after 24 hrs by immunofluorescence microscopic analysis; format: cell-based
T1 sequence (whole entry): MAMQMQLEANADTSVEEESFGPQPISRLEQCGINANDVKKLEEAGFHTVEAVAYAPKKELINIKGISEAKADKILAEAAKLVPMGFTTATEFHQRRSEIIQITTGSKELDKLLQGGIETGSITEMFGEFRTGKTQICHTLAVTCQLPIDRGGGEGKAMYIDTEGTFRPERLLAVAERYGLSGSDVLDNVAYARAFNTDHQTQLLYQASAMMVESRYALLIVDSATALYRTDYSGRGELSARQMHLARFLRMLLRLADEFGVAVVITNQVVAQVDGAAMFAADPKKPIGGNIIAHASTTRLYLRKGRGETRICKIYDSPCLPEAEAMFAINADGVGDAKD

[3] = Chronic toxicity in […] mouse assessed as effect on food/water uptake at 100 mg/kg, po administered as single dose via gavage measured for 30 days; format: organism-based; settings: in vivo, 720 h, time 30 day
[4] = Toxicity in […] mouse assessed as fold change in alkaline phosphatase level at 100 mg/kg, po administered as single dose via gavage measured after 30 days relative to control; format: organism-based; settings: in vivo, 720 h, time 30 day

For O=C(Nc1cc(C(F)(F)F)cc(C(F)(F)F)c1)N[C@@H](c1ccccc1)c1nnc(SCc2ccccc2)o1, the Activity [1] was “Active”, the Activity [2] was “Active” and the Activity [3] was “Non-Toxic”. For the same molecule, the “fold change (FC)” value [4] was 0.97.

Source: ChEMBL document CHEMBL5038569, “Targeting RECQL5 Functions, by a Small Molecule, Selectively Kills Breast Cancer in Vitro and in Vivo” (J Med Chem, 2021)
